≈ marks a conversion by molar mass, not a printed value. Where a SMILES comes first, the peptide text is derived from it.
Tests used:
B. cenocepacia AU0756 [1] = test system: B. cenocepacia AU0756
Summary of the method: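 Ubonodin variants were tested by broth microdilution following CLSI guidelines against clinical Burkholderia cenocepacia isolates AU0756 and AU24362.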

E. coli MC1061 = test: Colony-forming units of E. coli MC1061 pUboABC after IPTG induction; format: cell-based; conditions: wild-type uboA induced, no uboD, three biological replicates
Protocol: E. coli MC1061 pUboABC and E. coli MC1061 pUboBC cultures were grown. Aliquots of the cultures were sampled prior to and after induction with 10 μM IPTG and 100 μM IPTG, and 10-fold serial dilutions were plated. Colonies were counted 16 h after incubation. […]
fold serial dilutions were spotted onto LB plates supplemented with 100 μ g/m L ampicillin and 0.2% w/v glucose. Plates were incubated for 16 hours at 37 °C before imaging.
Colony- Forming Units of E. coli MC1061 pUboABC and E. coli MC1061 pUboBC pUboABC and pUboBC were transformed into electrocompetent E. coli MC1061, plated onto LB plates supplemented with 100 μ g/ m L ampicillin and 0.2% w/v glucose, and incubated at 37 °C for 16 hours. Single colonies were inoculated into LB media supplemented with 100 μ g/ m L ampicillin and 0.2% w/v glucose and shaken at 37 °C for 16 hours. These cultures were then sub-cultured to an OD600 of 0.02 into 50 mL of LB media supplemented with 100 μg/mL ampicillin in a 250 mL flask. Ten-fold serial dilutions of the culture were plated onto LB plates supplemented with 100 μ g/ m L ampicillin and 0.2% w/v glucose. […] All plates were incubated at 37 °C for 16 hours, after which the number of colonies was counted. […]
A small quantity of DNA was used to reduce the probability of two plasmids being transformed into the same cell. […]

B. cenocepacia AU0756 [2] = test system: B. cenocepacia AU0756; set-up: method as in PMID 35802499; conditions: spot-on-lawn assay; cited from earlier work
From the text: We proceeded to test the antimicrobial activity of the selected variants against two clinical isolates of the Bcc, B. cenocepacia AU0756 and B. cenocepacia AU24362, in broth microdilution assays. […] We revisited these measurements using broth microdilution assays following the Clinical & Laboratory Standards Institute (CLSI) standard.

CC[C@H](C)[C@@H]1NC(=O)[C@H](CO)NC(=O)CNC(=O)[C@H](CC(=O)O)NC(=O)CNC(=O)CNC(=O)CC[C@@H](C(=O)N[C@@H](Cc2ccc(O)cc2)C(=O)N[C@@H](Cc2ccccc2)C(=O)N[C@@H](CC(N)=O)C(=O)N[C@@H](CCCNC(=N)N)C(=O)N2CCC[C@H]2C(=O)N[C@@H](CCSC)C(=O)N[C@@H](Cc2c[nH]cn2)C(=O)N[C@H](C(=O)N[C@@H](Cc2c[nH]cn2)C(=O)N[C@@H](CC(=O)O)C(=O)N[C@@H](Cc2c[nH]c3ccccc23)C(=O)N[C@@H](CCC(N)=O)C(=O)N[C@H](C(=O)N[C@@H](CCSC)C(=O)N[C@@H](CC(=O)O)C(=O)N[C@@H](CO)C(=O)NCC(=O)N[C@@H](Cc2ccc(O)cc2)C(=O)N[C@@H](Cc2ccc(O)cc2)C(=O)NCC(=O)O)[C@@H](C)CC)[C@@H](C)CC)NC(=O)[C@H](C)NC1=O [WT, ubonodin] (HELM PEPTIDE1{G.G.D.G.S.I.A.E.Y.F.N.R.P.M.H.I.H.D.W.Q.I.M.D.S.G.Y.Y.G}$PEPTIDE1,PEPTIDE1,1:R1-8:R3$$$V2.0; C-terminus assumed)
B. cenocepacia AU0756 MIC (B. cenocepacia AU0756 [1]): 0.25 to 0.5 µM | Reduction in viable cell concentration (CFU per mL) after IPTG induction (E. coli MC1061): 3 log | MIC against strain AU0756 (B. cenocepacia AU0756 [2]): 10 µM (≈ 32 µg/mL)

Reference: article PMC10037499, “High-Throughput Screen Reveals the Structure–Activity Relationship of the Antimicrobial Lasso Peptide Ubonodin” (ACS Central Science, 2023)
